Experimental data reported in patent US20220281910A1, “DINUCLEOTIDE COMPOUNDS FOR TREATING CANCERS AND MEDICAL USES THEREOF” (PINOTBIO, INC., priority 2019, published 2022).

What was measured:
Format in all cases: cell-based
[1] = system: MV4-11; assay: Cell viability assay (CellTiterGlo), MV4-11; conditions: Homo sapiens; MV4-11, origin AML; 72 h
Procedure: (§1) The test compounds and bortezomib (positive control) were solved in DMSO as 5 mM solution, which was aliquoted, frozen at −20° C. and thawed just prior addition by nanodrop dispensing. Compound treatment of cells started one day after seeding with a final DMSO concentration of 0.1% and was generally performed by nanodrop-dispensing using a Tecan Dispenser. 0.1% DMSO (solvent) and Staurosporine (1.0E-05 M) served as high control (100% viability) and low control (0% viability), respectively.
(§2) Cells were cultured in different media. For the assays, cells were seeded in white cell culture-treated flat and clear bottom multiwell plates and incubated at 37° C. before the compound was added. After incubation for 72 h at 37° C. at 5% or 10% CO2 dependent on the medium, cell plates were equilibrated to room temperature for one hour, CellTiterGlo reagent (Promega) was added and luminescence was measured ap-proximately an hour later using a luminometer.
(§3) Raw data were converted into percent cell viability relative to the high and low control, which were set to 100% and 0%, respectively. IC50 calculation was performed using GraphPad Prism software with a variable slope sigmoidal response fitting model using 0% viability as bottom constraint and 100% viability as top constraint.

[2] = system: DU-145; assay: Cell viability assay (CellTiterGlo), DU-145; conditions: Homo sapiens; DU-145, origin Prostate; 72 h
Procedure: as §1, §2, §3

[3] = system: H460; assay: Cell viability assay (CellTiterGlo), H460; conditions: Homo sapiens, NCI-H460; H460, origin NSCLC; 72 h
Procedure: as §1, §2, §3

[4] = system: A375; assay: Cell viability assay (CellTiterGlo), A375; conditions: Homo sapiens, A-375; A375, origin Skin; 72 h
Procedure: as §1, §2, §3

[5] = system: NCI-H2286; assay: Cell viability assay (CellTiterGlo), NCI-H2286; conditions: Homo sapiens; NCI-H2286, origin NSCLC; 72 h
Procedure: as §1, §2, §3

**Q.** Which results are given for `CC(C)C[C@H](NC(=O)[C@H](Cc1ccccc1)NC(=O)c1cnccn1)B(O)O` [Bortezomib, bortezomib]?
**A.** IC50 [1]: 3.8 nM; IC50 [2]: 11 nM; IC50 [3]: 16 nM; IC50 [4]: 8.5 nM; IC50 [5]: 6.6 nM
